# What was measured:
# [1] = system: H3K27me2; experiment: Western blot of methylated histone 3 lysine residues; type: cell-based, mouse; settings: 0, 12 or 24 h treatment
# Procedure: (§1) All protein samples were lysed by homogenization in RIPA buffer supplemented with phosphatase inhibitors and protease inhibitors. Samples were sonicated briefly and centrifuged at 5,000 g for 10 minutes. The supernatant was collected and used for further analysis. Protein amount was quantified using the Bradford Protein Assay and equal amounts of protein (10-50 μg) were run by electrophoresis on polyacrylamide Tris-glycine SDS gels. Gels were transferred to PVDF and membranes were blocked for 1 hour in Blocking Buffer followed by incubation with primary antibody overnight at 4° C. Membranes were washed in TBS-T 3 times for 5 minutes each and then incubated with secondary antibody for 1 hour at room temperature. After incubation with fluorescent secondary antibodies, membranes were washed in TB S-T 3 times for 5 minutes each and then imaged on a Licor Odyssey system. The following antibodies were used in the study: MCU (1:1,000), MCUb (1:250,), MICU1 (1:500,), MCUR1 (1:500), EMRE (1:250, Santa Cruz, sc-86337), VDAC (1:1,000), PDHE1α phospho 5293 (1:1,000), PDHE1α (1:1,000,), IDH3A (1:500), α-tubulin (1:1,000), ETC respiratory chain complexes (1:2,500), H3K4me3 (1:2,000), H3K9me3 (1:2,000), H3K27me3 (1:2,000), H3K4me2 (1:2,000), H3K9me2 (1:2,000), H3K27me2 (1:2,000), H3 (1:2000); and secondary antibodies: anti-mouse (1:12,000), anti-rabbit, (1:12,000), and anti-goat (1:12,000).
# [2] = system: PDH E1α; experiment: Western blot of phosphorylated PDH; type: cell-based, mouse; settings: MEFs, 0, 24, 48, or 72 h
# Procedure: as §1
# [3] = system: H3K27me2; experiment: H3K27me2 ChIP-qPCR at Postn and Pdgfra loci; type: cell-based, mouse; settings: control cells (Ad-βgal), 12 hours
# Procedure: ChIP was performed using the ChIP-IT High Sensitivity. Cells were fixed, lysed and sonicated for 30 minutes (30 seconds on, 30 seconds off) leading to chromatin fragments between 200 and 1200 base pairs. DNA-bound protein was immunoprecipitated using 2 μg anti-H3K27me2 or IgG. Following IP, cross-links were reversed, protein was removed, and DNA was purified. qPCR was performed with equal amounts of H3K27me2-immunoprecipitated sample, IgG-immunoprecipitated sample, and input sample. Values were normalized to input measurements and fold enrichment was calculated. qPCR primers (Table 4) were designed to target gene loci regions flanking or nearby myofibroblast transcription factor predicted binding sites according to Genomatrix-MatInspector Software analysis.
# [4] = target: T1, mtCU (Mus musculus, UniProt Q3UMR5+Q8VCX5); experiment: Evaluation of mCa2+ uptake in permeabilized MEFs (Fura-2, Hill fit); type: cell-based
# T1 construct: After treating wildtype (WT) MEFs with TGFβ for 12 hours, fibroblasts were permeabilized with digitonin; endogenous in cells; host or cells: wild-type (C57/BL6) mouse embryonic fibroblasts, digitonin-permeabilized, with or without 12 h TGFβ
# Procedure: Before permeabilization, MEFs were washed in extracellular-like Ca^2+-free buffer (120 mM NaCl, 5 mM KCl, 1 mM KH2PO4, 0.2 mM MgCl2, 0.1 mM EGTA, 20 mM HEPEs-NaOH, pH 7.4). MEFs (1.5 million) were then transferred to intracellular-like medium (ICM) (120 mM KCl, 10 mM NaCl, 1 mM KH2PO4, 20 mM HEPES-Tris, protease inhibitors, 5 mM succinate, 2 μM thapsigargin, 40 μg ml^−1 digitonin, 10 μM CGP-37157 (NCLX inhibitor), pH 7.2). ICM was cleared with Chelex 100 to remove trace Ca^2+. MEFs were gently stirred and 1 μM Fura-2 was added to monitor extra-mitochondrial Ca^2+. At 20 seconds, JC-1 was added to monitor Δψ. Fluorescence signals were monitored in a temperature controlled (37° C.) multi-wavelength-excitation/dual-wavelength-emission spectrofluorometer (Delta RAM, Photon Technology Int.) using 490-nm excitation (ex)/535-nm emission (em) for the JC-1 monomer, 570-nm ex/595-nm em for the J-aggregate of JC-1, and 340- and 380-nm ex/510-nm em for Fura-2. […]
# To quantify actual Ca^2+ content, a standard curve of Ca^2+ binding Fura-2 was generated from serial diluted Ca^2+ standards (0.01-120 μM) in ICM. Fura-2 fluorescence ratio was converted to [Ca^2+] by the following equation: [Ca^2+]=Kd*(R−Rmin)/(Rmax−R)*Sf2/Sb2. (Rmin (ratio in 0-Ca^2+)=1.341; Rmax (ratio at saturation)=27.915; Sf2 (380/510 reading in 0-Ca^2+)=15822.14; Sb2 (380/510 reading with Ca^2+ saturation)=1794.32). […]
# T1 sequence (Q3UMR5 50-350): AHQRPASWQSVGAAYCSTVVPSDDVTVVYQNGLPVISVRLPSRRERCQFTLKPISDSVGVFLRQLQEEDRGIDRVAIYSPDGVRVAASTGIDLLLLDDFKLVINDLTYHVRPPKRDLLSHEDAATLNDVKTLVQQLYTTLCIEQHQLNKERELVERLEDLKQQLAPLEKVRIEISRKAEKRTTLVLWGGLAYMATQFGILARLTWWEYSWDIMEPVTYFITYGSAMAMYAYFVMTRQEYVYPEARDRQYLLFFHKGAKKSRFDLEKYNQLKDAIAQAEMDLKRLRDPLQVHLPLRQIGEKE
# T1 sequence (Q8VCX5 34-477): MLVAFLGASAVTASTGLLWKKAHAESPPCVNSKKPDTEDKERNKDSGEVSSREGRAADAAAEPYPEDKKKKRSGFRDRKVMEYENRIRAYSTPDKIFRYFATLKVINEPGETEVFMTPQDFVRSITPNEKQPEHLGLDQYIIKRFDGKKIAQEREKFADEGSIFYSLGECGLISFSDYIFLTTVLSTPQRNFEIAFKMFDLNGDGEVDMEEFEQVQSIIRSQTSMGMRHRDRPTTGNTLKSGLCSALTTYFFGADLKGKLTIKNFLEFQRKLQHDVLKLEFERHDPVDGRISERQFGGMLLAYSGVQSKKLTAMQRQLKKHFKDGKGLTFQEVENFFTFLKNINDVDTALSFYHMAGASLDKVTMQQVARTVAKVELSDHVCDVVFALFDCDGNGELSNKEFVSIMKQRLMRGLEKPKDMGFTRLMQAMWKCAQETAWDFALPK
# T1 sequence (Q9DB10 48-107 partner): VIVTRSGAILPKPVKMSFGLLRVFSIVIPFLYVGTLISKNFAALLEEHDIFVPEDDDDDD
# T1 sequence (Q8CD10 23-432 partner): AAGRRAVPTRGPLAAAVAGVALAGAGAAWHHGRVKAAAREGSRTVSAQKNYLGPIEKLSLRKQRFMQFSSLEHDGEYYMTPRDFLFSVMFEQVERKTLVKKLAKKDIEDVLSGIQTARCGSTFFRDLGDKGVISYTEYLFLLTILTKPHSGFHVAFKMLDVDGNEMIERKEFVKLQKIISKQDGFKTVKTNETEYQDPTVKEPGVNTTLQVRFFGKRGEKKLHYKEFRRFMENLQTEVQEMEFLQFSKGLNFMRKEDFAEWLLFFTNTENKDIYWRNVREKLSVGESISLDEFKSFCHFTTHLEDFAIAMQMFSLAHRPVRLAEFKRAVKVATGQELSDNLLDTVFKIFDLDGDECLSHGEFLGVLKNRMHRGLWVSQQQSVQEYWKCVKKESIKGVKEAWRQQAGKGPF
substance,measurement,setting,value
"TGFβ: recombinant mouse Transforming growth factor-β, pro-fibrotic agonist",dimethylation of H3K27 (H3K27me2),[1],progressive decrease
same,ratio of p-PDH E1α/PDH,[2],increased
same,H3K27me2 enrichment at the Postn and Pdgfra loci,[3],lost
same,Hill coefficient of mCa2+ uptake dose response curve,"[4]; WT MEFs treated 12 hours, control cells 4.29",10.27
same,mCa2+ uptake,"[4]; following delivery of ~0.5-2 μM [Ca2+], 12 hours treatment",decrease

# Source: patent publication US20210330744A1, “Methods and Compositions for Treating Neurodegeneration and Fibrosis” (Temple University-Of The Commonwealth System of Higher …, priority 2017, published 2021)
